{"source": "patent US20250360235A1", "about": "“RADI[…] AND METHOD FOR RADIOLABELLING” (Telix Innovations SA, priority 2024, published 2025)", "assay": "Radiochemical purity by HPLC over time after radiolabelling", "type": "physicochemical", "description": "Table 1 to Table 5 show the results of various radiolabelling experiments on radiochemical purity and the chelation yield. The radiolabelling experiments in the tables are carried out as described in: • Example 1 for when the gallium-68 source is GE Liquid target generator and EZAG GalliaPharm generator; • Example 2 for when the gallium-68 source is IRE Galli Eo generator; • Example 3 for when the gallium-68 source is GE solid target generator;\nHowever, the experiments were carried out with the amount of ascorbic acid as indicated in the Tables 1 to 5, and the activity as indicated in the Tables 1 to 5. Radiochemical purities were measured at various times (T0, T1, T4, T6) after the radiolabelled experiments have been conducted.\nThe kits of Example 1, Example 2 or Example 3, with amounts of ascorbic acid as set out in Table 7 were used in the experiments for the ascorbic acid bracketing matrix. Three strengths of [^68Ga]Ga-PSMA-11 will be tested, i.e. 50 mCi/ml, 7 mCi/ml and 1 mCi/ml. Radiochemical purity was determined at different time points (TO, T1, T4 or T6), as set out in Table 7.", "data": [{"smiles": "O=C([O-])CN(CCN(CC(=O)[O-])Cc1cc(CCC(=O)NCCCCCC(=O)NCCCC[C@H](NC(=O)N[C@@H](CCC(=O)O)C(=O)O)C(=O)O)ccc1[O-])Cc1cc(CCC(=O)O)ccc1[O-].[68Ga+3].[OH3+]", "note": "[[^68Ga]PSMA-11, gallium-68 radiolabelled Glu-urea-Lys-HBED-CC (gozetotide or PSMA-11)]", "values": [{"measurement": "Radiochemical Purity (HPLC) Ga-68 PSMA-11 (%)", "setting": "25 mg ascorbic acid, 46.0-46.1 mCi, 4.38-4.39 mCi/mL, EZAG GalliaPharm, n=2, T4 (4 h)", "result": "C (C = all results conform to specifications)"}, {"measurement": "Radiochemical Purity (HPLC) Ga-68 PSMA-11 (%)", "setting": "bracketing ~1 mCi/mL, 18.75 mg ascorbic acid, 8.9-11.5 mCi, 0.85-1.09 mCi/mL, IRE Galli Eo, average of 2, T0", "result": 100, "unit": "%"}, {"measurement": "Radiochemical Purity (HPLC) Ga-68 PSMA-11 (%)", "setting": "bracketing ~1 mCi/mL, 18.75 mg ascorbic acid, 8.9-11.5 mCi, 0.85-1.09 mCi/mL, IRE Galli Eo, average of 2, T1 (1 h)", "result": 100, "unit": "%"}, {"measurement": "Radiochemical Purity (HPLC) Ga-68 PSMA-11 (%)", "setting": "bracketing ~1 mCi/mL, 25 mg ascorbic acid, 8.8-12.7 mCi, 0.84-1.21 mCi/mL, 2 × IRE Galli Eo, average of 2, T0", "result": 99, "unit": "%"}, {"measurement": "Radiochemical Purity (HPLC) Ga-68 PSMA-11 (%)", "setting": "bracketing ~1 mCi/mL, 25 mg ascorbic acid, 8.8-12.7 mCi, 0.84-1.21 mCi/mL, 2 × IRE Galli Eo, average of 2, T1 (1 h)", "result": 100, "unit": "%"}, {"measurement": "Radiochemical Purity (HPLC) Ga-68 PSMA-11 (%)", "setting": "bracketing ~1 mCi/mL, 31.25 mg ascorbic acid, 15.2-26.9 mCi, 1.44-2.54 mCi/mL, EZAG GalliaPharm, average of 2, T0", "result": 100, "unit": "%"}, {"measurement": "Radiochemical Purity (HPLC) Ga-68 PSMA-11 (%)", "setting": "bracketing ~1 mCi/mL, 31.25 mg ascorbic acid, 15.2-26.9 mCi, 1.44-2.54 mCi/mL, EZAG GalliaPharm, average of 2, T1 (1 h)", "result": 100, "unit": "%"}, {"measurement": "Radiochemical Purity (HPLC) Ga-68 PSMA-11 (%)", "setting": "bracketing ~7 mCi/mL, 18.75 mg ascorbic acid, 51.0-58.0 mCi, 5.55-6.5 mCi/mL, IRE Galli Eo, average of 2, T0", "result": 100, "unit": "%"}, {"measurement": "Radiochemical Purity (HPLC) Ga-68 PSMA-11 (%)", "setting": "bracketing ~7 mCi/mL, 18.75 mg ascorbic acid, 51.0-58.0 mCi, 5.55-6.5 mCi/mL, IRE Galli Eo, average of 2, T4 (4 h)", "result": 100, "unit": "%"}, {"measurement": "Radiochemical Purity (HPLC) Ga-68 PSMA-11 (%)", "setting": "bracketing ~7 mCi/mL, 25 mg ascorbic acid, 51.6-74.4 mCi, 4.56-6.92 mCi/mL, 3 × GE Liquid Target, 3 × IRE Galli Eo, 3 × EZAG GalliaPharm, average of 9, T0", "result": 100, "unit": "%"}, {"measurement": "Radiochemical Purity (HPLC) Ga-68 PSMA-11 (%)", "setting": "bracketing ~7 mCi/mL, 25 mg ascorbic acid, 51.6-74.4 mCi, 4.56-6.92 mCi/mL, 3 × GE Liquid Target, 3 × IRE Galli Eo, 3 × EZAG GalliaPharm, average of 9, T4 (4 h)", "result": 100, "unit": "%"}, {"measurement": "Radiochemical Purity (HPLC) Ga-68 PSMA-11 (%)", "setting": "bracketing ~7 mCi/mL, 31.25 mg ascorbic acid, 61.5-62.0 mCi, 5.85-5.88 mCi/mL, EZAG GalliaPharm, average of 2, T0", "result": 100, "unit": "%"}, {"measurement": "Radiochemical Purity (HPLC) Ga-68 PSMA-11 (%)", "setting": "bracketing ~7 mCi/mL, 31.25 mg ascorbic acid, 61.5-62.0 mCi, 5.85-5.88 mCi/mL, EZAG GalliaPharm, average of 2, T4 (4 h)", "result": 100, "unit": "%"}, {"measurement": "Radiochemical Purity (HPLC) Ga-68 PSMA-11 (%)", "setting": "bracketing ~50 mCi/mL, 20 mg ascorbic acid, 514-544 mCi, 48.3-51.9 mCi/mL, GE Solid Target, average of 2, T0", "result": 100, "unit": "%"}, {"measurement": "Radiochemical Purity (HPLC) Ga-68 PSMA-11 (%)", "setting": "bracketing ~50 mCi/mL, 20 mg ascorbic acid, 514-544 mCi, 48.3-51.9 mCi/mL, GE Solid Target, average of 2, T6 (6 h)", "result": 100, "unit": "%"}, {"measurement": "Radiochemical Purity (HPLC) Ga-68 PSMA-11 (%)", "setting": "bracketing ~50 mCi/mL, 25 mg ascorbic acid, 537-551 mCi, 50.2-51.6 mCi/mL, GE Solid Target, average of 3, T0", "result": 100, "unit": "%"}, {"measurement": "Radiochemical Purity (HPLC) Ga-68 PSMA-11 (%)", "setting": "bracketing ~50 mCi/mL, 25 mg ascorbic acid, 537-551 mCi, 50.2-51.6 mCi/mL, GE Solid Target, average of 3, T6 (6 h)", "result": 100, "unit": "%"}, {"measurement": "Radiochemical Purity (HPLC) Ga-68 PSMA-11 (%)", "setting": "bracketing ~50 mCi/mL, 31.25 mg ascorbic acid, 500-544 mCi, 48.1-51.7 mCi/mL, GE Solid Target, average of 2, T0", "result": 100, "unit": "%"}, {"measurement": "Radiochemical Purity (HPLC) Ga-68 PSMA-11 (%)", "setting": "bracketing ~50 mCi/mL, 31.25 mg ascorbic acid, 500-544 mCi, 48.1-51.7 mCi/mL, GE Solid Target, average of 2, T6 (6 h)", "result": 100, "unit": "%"}, {"measurement": "Radiochemical Purity (HPLC) Ga-68 PSMA-11 (%)", "setting": "validation batches, 25 mg ascorbic acid, 51.6-62.7 mCi, 4.56-5.88 mCi/mL, IRE Galli Eo, average of 3, T0", "result": 100, "unit": "%"}, {"measurement": "Radiochemical Purity (HPLC) Ga-68 PSMA-11 (%)", "setting": "validation batches, 25 mg ascorbic acid, 51.6-62.7 mCi, 4.56-5.88 mCi/mL, IRE Galli Eo, average of 3, T4 (4 h)", "result": 100, "unit": "%"}, {"measurement": "Radiochemical Purity (HPLC) Ga-68 PSMA-11 (%)", "setting": "validation batches, 25 mg ascorbic acid, 51.6-62.7 mCi, 4.56-5.88 mCi/mL, IRE Galli Eo, n=3, T0", "result": "C (C = all results conform to specifications)"}, {"measurement": "Radiochemical Purity (HPLC) Ga-68 PSMA-11 (%)", "setting": "validation batches, 25 mg ascorbic acid, 51.6-62.7 mCi, 4.56-5.88 mCi/mL, IRE Galli Eo, n=3, T4 (4 h)", "result": "C (C = all results conform to specifications)"}, {"measurement": "Radiochemical Purity (HPLC) Ga-68 PSMA-11 (%)", "setting": "validation batches, 25 mg ascorbic acid, 53.3-74.4 mCi, 5.03-6.92 mCi/mL, GE Liquid target, average of 3, T0", "result": 99, "unit": "%"}, {"measurement": "Radiochemical Purity (HPLC) Ga-68 PSMA-11 (%)", "setting": "validation batches, 25 mg ascorbic acid, 53.3-74.4 mCi, 5.03-6.92 mCi/mL, GE Liquid target, average of 3, T4 (4 h)", "result": 100, "unit": "%"}, {"measurement": "Radiochemical Purity (HPLC) Ga-68 PSMA-11 (%)", "setting": "validation batches, 25 mg ascorbic acid, 53.3-74.4 mCi, 5.03-6.92 mCi/mL, GE Liquid target, n=3, T0", "result": "C (C = all results conform to specifications)"}, {"measurement": "Radiochemical Purity (HPLC) Ga-68 PSMA-11 (%)", "setting": "validation batches, 25 mg ascorbic acid, 53.3-74.4 mCi, 5.03-6.92 mCi/mL, GE Liquid target, n=3, T4 (4 h)", "result": "C (C = all results conform to specifications)"}, {"measurement": "Radiochemical Purity (HPLC) Ga-68 PSMA-11 (%)", "setting": "validation batches, 25 mg ascorbic acid, 65.0-66.4 mCi, 5.74-6.15 mCi/mL, EZAG GalliaPharm, average of 3, T0", "result": 100, "unit": "%"}, {"measurement": "Radiochemical Purity (HPLC) Ga-68 PSMA-11 (%)", "setting": "validation batches, 25 mg ascorbic acid, 65.0-66.4 mCi, 5.74-6.15 mCi/mL, EZAG GalliaPharm, average of 3, T4 (4 h)", "result": 100, "unit": "%"}, {"measurement": "Radiochemical Purity (HPLC) Ga-68 PSMA-11 (%)", "setting": "validation batches, 25 mg ascorbic acid, 65.0-66.4 mCi, 5.74-6.15 mCi/mL, EZAG GalliaPharm, n=3, T0", "result": "C (C = all results conform to specifications)"}, {"measurement": "Radiochemical Purity (HPLC) Ga-68 PSMA-11 (%)", "setting": "validation batches, 25 mg ascorbic acid, 65.0-66.4 mCi, 5.74-6.15 mCi/mL, EZAG GalliaPharm, n=3, T4 (4 h)", "result": "C (C = all results conform to specifications)"}, {"measurement": "Radiochemical Purity (HPLC) Ga-68 PSMA-11", "setting": "validation batches, 25 mg ascorbic acid, 537-551 mCi, 50.2-51.6 mCi/mL, GE Solid Target, average of 3, T0", "result": 100, "unit": "%"}, {"measurement": "Radiochemical Purity (HPLC) Ga-68 PSMA-11", "setting": "validation batches, 25 mg ascorbic acid, 537-551 mCi, 50.2-51.6 mCi/mL, GE Solid Target, average of 3, T6 (6 h)", "result": 100, "unit": "%"}, {"measurement": "Radiochemical Purity (HPLC) Ga-68 PSMA-11", "setting": "validation batches, 25 mg ascorbic acid, 537-551 mCi, 50.2-51.6 mCi/mL, GE Solid Target, n=3, T0", "result": "C (C = all results conform to specifications)"}, {"measurement": "Radiochemical Purity (HPLC) Ga-68 PSMA-11", "setting": "validation batches, 25 mg ascorbic acid, 537-551 mCi, 50.2-51.6 mCi/mL, GE Solid Target, n=3, T6 (6 h)", "result": "C (C = all results conform to specifications)"}, {"measurement": "Radiochemical Purity (HPLC) Ga-68 PSMA-11", "setting": "validation batches, 25 mg ascorbic acid, 555-564 mCi, 51.1-52.7 mCi/mL, ARTMS Solid Target, average of 3, T0", "result": 99, "unit": "%"}, {"measurement": "Radiochemical Purity (HPLC) Ga-68 PSMA-11", "setting": "validation batches, 25 mg ascorbic acid, 555-564 mCi, 51.1-52.7 mCi/mL, ARTMS Solid Target, average of 3, T6 (6 h)", "result": 100, "unit": "%"}, {"measurement": "Radiochemical Purity (HPLC) Ga-68 PSMA-11", "setting": "validation batches, 25 mg ascorbic acid, 555-564 mCi, 51.1-52.7 mCi/mL, ARTMS Solid Target, n=3, T0", "result": "C (C = all results conform to specifications)"}, {"measurement": "Radiochemical Purity (HPLC) Ga-68 PSMA-11", "setting": "validation batches, 25 mg ascorbic acid, 555-564 mCi, 51.1-52.7 mCi/mL, ARTMS Solid Target, n=3, T6 (6 h)", "result": "C (C = all results conform to specifications)"}]}]}
